The results in this text go back to PMC11595589, “A Pharmacokinetic and Bioavailability Study of Ecklonia cava Phlorotannins Following Intravenous and Oral Administration in Sprague–Dawley Rats” (Marine Drugs, 2024).

Entries after “also recorded” stand apart in the source; their conditions may differ. Where two headings read alike, the source gives them in different places.

This data set is described as follows: Single-dose pharmacokinetics and bioavailability after oral gavage administration of EK-ECP. The class given is in vivo, male Sprague–Dawley rats. To be noted: for Tlast / Tmax: median (minimum-maximum); for fold increase in AUCTlast for a 1:10-fold increase in dose / fold increase in Cmax for a 1:10-fold increase in dose: PO 100 to 1000 mg/kg EK-ECP; for half-life / AUC(0-t) / bioavailability / Cmax / AUC(0-inf) / MRT last / Vd/F / Tmax: male, Sprague-Dawley, rat; for half-life / AUC(0-t): po; for bioavailability: 100 and 1000 mg/kg oral dose of EK-ECP versus IV 10 mg/kg, dose-corrected, read-out: Bioavailability following oral gavage administration; for Vd/F: read-out: Vz/F. As to the method: EK-ECP was administered to male Sprague–Dawley rats by either IV bolus (Group 1, 10 mg/kg) or oral gavage (Groups 2, 3 or 4, at 10, 100 or 1000 mg/kg, respectively) administration. Blood collection intervals were pre dose (0), and 0.25, 0.5, 1, 2, 4, 6, 8, 12, 24 and 36 h post dose. Plasma samples were analyzed for concentrations of 8,8′-bieckol, dieckol, and PFF-A; all pre-dose sample results were less than the lower limit of quantitation (LLOQ < 1 ng/mL). The time profiles of the plasma concentrations of 8,8′-bieckol, dieckol, and PFF-A in individual animals are illustrated in Figure 4. The mean pharmacokinetic parameters and corresponding coefficient of variation (CV) following IV administration of 10 mg/kg EK-ECP to male rats are illustrated in Table 1. Those following oral administrations of 10, 100 and 1000 mg/kg EK-ECP to male rats are illustrated in Table 2.
Total of 20 male CD® [Crl:CD®(SD)] rats (approximately 11.5 weeks of age) obtained from Charles River Laboratories (Portage, MI, USA) were used in our study. These included five rats with both jugular and femoral vein cannulations, and 15 rats with jugular vein cannulations. Of the 20 animals received, 16 male rats were placed in the study, comprising four rats with both jugular and femoral vein cannulations, and 12 rats with jugular vein cannulations. The rats were housed in the Mattawan facility of MPI Research Inc (currently Charles River Laboratories, Mattawan, MI, USA). Animal welfare for this study was in compliance with the U.S. Department of Agriculture’s (USDA) Animal Welfare Act (9 CFR Parts 1, 2 and 3). This facility maintained an animal welfare assurance statement with the National Institutes of Health Office of Laboratory Animal Welfare. All procedures were approved before the study by the institutional animal care utilization committee. Animals were individually housed and fed a basal diet of Lab Diet Certified Rodent Diet #5002, PMI Nutrition International, Inc. Food and water was available ad libitum except during fasting periods, when food was withheld, and during any required restraint periods, when both food and water were withheld. Animal rooms were maintained at (20 ± 2) °C and (50 ± 20)% relative humidity with a 12 h light/dark cycle throughout the study.
For intravenous administration, EK-ECP was dissolved in 70/25/5 (v/v) phosphate-buffered saline (PBS)/propylene glycol/ethanol (pH 5.1 final concentration of 2 mg/mL) and stabilized at room temperature for 24 h. For oral administration, after an amount of EK-ECP appropriate to the final targeted formulation concentrations was weighed and placed in a bottle, a small amount of the vehicle (water for injection) was added and mixed using a vortex mixer and heated to between 60 to 70 °C until homogeneously suspended. Additional amounts of the vehicle were gradually added to yield the targeted EK-ECP concentrations (1, 10, and 100 mg/mL). Dosing occurred within 4 h after preparation completion. The individual constituent doses of dieckol, 8,8′-bieckol, and PFF-A in each dosing formulation were analyzed by RP-HPLC followed by interpolation of the corresponding area% to the calibration curve prepared with known concentrations of isolated standards. The animals were fasted for a minimum of 4 h prior to dosing and through the first 4 h of blood sample collection. Each animal in Group 1 received a single intravenous (IV) dose of the 10 mg/kg EK-ECP. The intravenous doses were administered as a slow bolus injection over 5 min through the femoral vein cannula. The cannula was flushed with approximately 0.3 mL of sterile 0.9% sodium chloride for injection, USP, immediately following dosing. Each animal in Groups 2, 3 and 4 received a single oral (PO) gavage dose of the appropriate test article formulation, as outlined Table 3. Oral gavage dosing formulations were continuously stirred throughout dosing. […]

The mark [1] stands for this setting: PO 1000 mg/kg EK-ECP (Group 4), PFF-A in a single rat.
Setting [2] is: plasma, PO 100 mg/kg EK-ECP, mean (CV).
Setting [3] is: plasma, PO 1000 mg/kg EK-ECP (Group 4), mean (CV), PFF-A N = 1.
Setting [4] is: plasma, PO 1000 mg/kg EK-ECP, mean (CV).
Where [5] appears, read: in vivo, PO 100 mg/kg EK-ECP, mean (CV).
Setting [6] is: in vivo, PO 1000 mg/kg EK-ECP, mean (CV).

One may read the Cmax as the peak of the concentration-time curve. One may read the AUC(0-inf) as the area under the concentration-time curve extrapolated to infinity. A higher AUC(0-inf) goes with more exposure. Broadly, the MRT last is the average time that molecules of a dose stay in the body. Usually Tmax stands for the time at which the peak concentration occurs.

In the case of `Oc1cc(O)cc(Oc2c(O)cc(O)c3c2Oc2c(O)cc(Oc4c(O)cc(Oc5c(O)cc(O)c6c5Oc5c(O)cc(O)cc5O6)cc4O)cc2O3)c1` [dieckol], the “fold increase in AUCTlast for a 1:10-fold increase in dose” value is reported as approximately 49 fold and the “fold increase in Cmax for a 1:10-fold increase in dose” value is reported as approximately 41 fold. In addition, the “plasma concentrations quantifiable up to” value (PO 100 mg/kg EK-ECP (Group 3)) turned out to be 8 h. Further, the Tlast (PO 100 mg/kg EK-ECP) is recorded as 8 (6–8) h. The “plasma concentrations quantifiable up to” value under setting [1] is 36 h. Also, the Tlast (PO 1000 mg/kg EK-ECP) is 36 (36–36) h. Besides, the half-life (plasma, 100 mg/kg, PO 100 mg/kg EK-ECP, mean (CV), ln(2)·MRTlast, read-out: Effective T1/2 (converted)) is 142 min. For the same compound, the AUC(0-t) (plasma, 100 mg/kg, PO 100 mg/kg EK-ECP, mean (CV), read-out: AUC(0–24h)) is 27.2 ng·h/mL. Besides, the AUC(0-t) (plasma, 100 mg/kg, PO 100 mg/kg EK-ECP, mean (CV), read-out: AUCTlast) was 24.3 ng·h/mL. Besides, the half-life (plasma, 100 mg/kg, PO 100 mg/kg EK-ECP, mean (CV), read-out: T1/2 (terminal half-life) (converted)) was 166 min. In addition, the half-life (plasma, 1000 mg/kg, PO 1000 mg/kg EK-ECP, mean (CV), ln(2)·MRTlast, read-out: Effective T1/2 (converted)) is 319 min. Further, the AUC(0-t) (plasma, 1000 mg/kg, PO 1000 mg/kg EK-ECP, mean (CV), read-out: AUC(0–24h)) was found to be 1130 ng·h/mL. Under “plasma, 1000 mg/kg, PO 1000 mg/kg EK-ECP, mean (CV), read-out: AUCTlast”, the AUC(0-t) is 1200 ng·h/mL. In addition, under “plasma, 1000 mg/kg, PO 1000 mg/kg EK-ECP, mean (CV), read-out: T1/2 (terminal half-life) (converted)”, the half-life is 397 min. Besides, the bioavailability (plasma) lay in the range of 0.06 to 0.23%. Under “plasma, PO 100 mg/kg EK-ECP (Group 3), mean (CV)”, this compound displayed a maximum concentration (Cmax) of 6.67 ng/mL. Further, under setting [2], the AUC(0-inf) stood at 31.4 ng·h/mL, the MRT last came to 3.4 h and the Vd/F amounted to 1160 L/kg. For the same compound, the Tmax (plasma, PO 100 mg/kg EK-ECP) fell in the range of 30 to 240 min. This compound yielded a Cmax under setting [3] of 274 ng/mL. Under setting [4], the AUC(0-inf) was determined as 1230 ng·h/mL, the mean residence time MRT last is 7.67 h and the Vd/F worked out at 768 L/kg. In addition, where the note is “plasma, PO 1000 mg/kg EK-ECP”, the Tmax is 30 min.
Regarding `Oc1cc(O)cc(Oc2c(O)cc(O)c3c2Oc2c(cc(O)c(-c4c(O)cc5c(c4O)Oc4c(Oc6cc(O)cc(O)c6)c(O)cc(O)c4O5)c2O)O3)c1` [8,8′-bieckol], the “fold increase in AUCTlast for a 1:10-fold increase in dose” value is recorded as approximately 84 fold and the “fold increase in Cmax for a 1:10-fold increase in dose” value was approximately 71 fold. Further, the “plasma concentrations quantifiable up to” value (PO 100 mg/kg EK-ECP (Group 3)) came out at 12 h. Moreover, for the setting “PO 100 mg/kg EK-ECP”, the Tlast is 8 (8–12) h. Under setting [1], the “plasma concentrations quantifiable up to” value is given as 36 h. Also, for the setting “PO 1000 mg/kg EK-ECP, mean (CV), ln(2)·MRTlast, 1000 mg/kg”, the “Effective T1/2” value is on record as 4.11 (16) h. The Tlast (PO 1000 mg/kg EK-ECP) was 36 (36–36) h. Further, the half-life (in vivo, 100 mg/kg, PO 100 mg/kg EK-ECP, mean (CV), ln(2)·MRTlast, read-out: Effective T1/2 (converted)) is 134 min. The AUC(0-t) (in vivo, 100 mg/kg, PO 100 mg/kg EK-ECP, mean (CV), read-out: AUC(0–24h)) stood at 41.5 ng·h/mL. For the same compound, the AUC(0-t) (in vivo, 100 mg/kg, PO 100 mg/kg EK-ECP, mean (CV), read-out: AUCTlast) amounted to 37.7 ng·h/mL. Besides, the half-life (in vivo, 100 mg/kg, PO 100 mg/kg EK-ECP, mean (CV), read-out: T1/2 (terminal half-life) (converted)) was 177 min. For the same compound, the half-life (in vivo, 1000 mg/kg, PO 1000 mg/kg EK-ECP, mean (CV), ln(2)·MRTlast, read-out: Effective T1/2 (converted)) is 265 min. Where the note is “in vivo, 1000 mg/kg, PO 1000 mg/kg EK-ECP, mean (CV), read-out: AUC(0–24h)”, the AUC(0-t) amounted to 3050 ng·h/mL. The AUC(0-t) (in vivo, 1000 mg/kg, PO 1000 mg/kg EK-ECP, mean (CV), read-out: AUCTlast) was determined as 3170 ng·h/mL. The half-life (in vivo, 1000 mg/kg, PO 1000 mg/kg EK-ECP, mean (CV), read-out: T1/2 (terminal half-life) (converted)) was 398 min. For the same compound, where the note is “in vivo”, the bioavailability lay within 0.069 to 0.5%. This compound registered a Cmax (in vivo, PO 100 mg/kg EK-ECP (Group 3), mean (CV)) of 11.2 ng/mL. Besides, under setting [5], the AUC(0-inf) was determined as 44 ng·h/mL, the MRT last is 3.23 h and the Vd/F turned out to be 1060 L/kg. Besides, where the note is “in vivo, PO 100 mg/kg EK-ECP”, the time to peak (Tmax) was in the range of 15 to 240 min. The peak concentration (Cmax) (in vivo, PO 1000 mg/kg EK-ECP (Group 4), mean (CV), PFF-A N = 1) worked out at 795 ng/mL. In addition, under setting [6], the total exposure AUC(0-inf) was 3210 ng·h/mL, the MRT last came to 5.93 h and the Vd/F turned out to be 342 L/kg. For the same compound, the time of peak concentration (Tmax) (in vivo, PO 1000 mg/kg EK-ECP) was 30 min.
In the case of `Oc1cc(O)cc(Oc2c(O)cc(O)c3c2Oc2c(O)cc4oc5c(Oc6cc(O)cc(O)c6)c(O)cc(O)c5c4c2O3)c1` [PFF-A, phlorofucofuroeckol-A], under “PO 100 mg/kg EK-ECP (Group 3), LLOQ 1 ng/mL, 100 mg/kg”, the plasma concentrations entry was “below the lower limit of quantitation; also recorded: below the quantifiable limit”. Moreover, the “plasma concentrations quantifiable up to” value under setting [1] is on record as 1 h. Under setting [3], this compound had a maximum concentration (Cmax) of 1.58 ng/mL. Besides, the Tmax (plasma, PO 1000 mg/kg EK-ECP) was found to be 30 min.
